This note sets out measurements from article PMC6465285, “Arsinothricin, an arsenic-containing non-proteinogenic amino acid analog of glutamate, is a broad-spectrum antibiotic” (Communications Biology, 2019).

The target in data set [1] is T1, glutamine synthetase (Escherichia coli, UniProt P0A9C5).
T1 construct: gene glnA
In words: coupled ADP/NADH oxidation assay with purified enzyme. Type of data set: biochemical.

Data set [2] relates to CP(=O)(O)CC[C@H](N)C(=O)O. In words: purified protein. The note with it: acetyl coenzyme A.
Data set [3] concerns the target T2, SvPAT (phosphinothricin N-acetyltransferase) (Streptomyces viridochromogenes, UniProt Q57146).
T2 construct: gene pat
In words: DTNB acetyltransferase assay, Km. The note with it: read-out: Specific activity (nmol s^-1 mg^-1 PpArsN1) / Km.

For data set [4], the target named is T3, PpArsN1 (ArsN1 N-acetyltransferase) (Pseudomonas putida, UniProt Q88LK7).
T3 construct: gene PP_1924

In data set [5] the target is T3, PpArsN1 (ArsN1 N-acetyltransferase). The source holds these as a separate data set.
In data set [6] the target is T1, glutamine synthetase. In words: coupled ADP/NADH oxidation assay, Km. Type of data set: biochemical.
The target of data set [7] is PpArsN1, arsinothricin N-acetyltransferase ArsN1 of Pseudomonas putida KT2440 (Pseudomonas putida KT2440). In words: SEC; size-exclusion chromatography of purified PpArsN1 in solution (Supplementary Figure 2); conditions not given. For orientation: Size exclusion chromatography separates by hydrodynamic size, large species first.

One may read the Ki as the equilibrium dissociation constant of an inhibitor or competing ligand from its target. Broadly, the kcat is the maximal rate divided by the concentration of active sites. For orientation: kcat/Km means the turnover number divided by the Michaelis constant. What is called stoichiometry N is the number of molecules, sites or subunits per partner or assembly.

T1 sequence (P0A9C5 2-469): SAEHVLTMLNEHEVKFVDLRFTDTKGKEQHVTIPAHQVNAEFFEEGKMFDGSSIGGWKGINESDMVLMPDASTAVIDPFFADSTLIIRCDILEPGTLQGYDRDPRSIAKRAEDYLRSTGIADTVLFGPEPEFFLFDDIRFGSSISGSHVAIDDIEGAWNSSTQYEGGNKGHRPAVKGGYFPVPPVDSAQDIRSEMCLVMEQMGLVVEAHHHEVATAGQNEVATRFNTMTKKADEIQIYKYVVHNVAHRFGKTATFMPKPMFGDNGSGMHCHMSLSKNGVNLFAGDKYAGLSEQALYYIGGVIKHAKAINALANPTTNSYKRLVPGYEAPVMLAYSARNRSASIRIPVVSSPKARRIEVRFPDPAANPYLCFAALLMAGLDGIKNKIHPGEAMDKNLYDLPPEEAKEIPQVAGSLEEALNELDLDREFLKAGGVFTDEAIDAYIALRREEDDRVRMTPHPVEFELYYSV
T2 sequence (Q57146 whole entry, looked up): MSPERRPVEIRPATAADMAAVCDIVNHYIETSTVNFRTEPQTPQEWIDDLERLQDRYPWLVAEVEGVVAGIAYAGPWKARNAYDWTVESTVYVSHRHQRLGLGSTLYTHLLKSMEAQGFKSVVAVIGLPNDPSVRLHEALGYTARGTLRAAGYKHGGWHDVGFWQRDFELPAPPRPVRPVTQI

On glutamine synthetase [1], `CP(=O)(O)CC[C@H](N)C(=O)O` [L-PPT, 2-amino-4-(hydroxymethylphosphinyl)butanoate] returned a Ki of 400 ± 150 nM.

Regarding “SvPAT (phosphinothricin N-acetyltransferase) (Streptomyces viridochromogenes DSM 40736)”, in data set [2], the Km came to 47 ± 2 µM, the turnover number (kcat) came to 3.1 s⁻¹ and the kcat/Km worked out at 66000 M⁻¹ s⁻¹.

As for `C[As](=O)(O)CC[C@H](N)C(=O)O` [AST, 2-amino-4-(hydroxymethylarsinoyl)butanoate], the figures for the Km in data set [3] and in data set [4] were 12 ± 2 µM and 11 ± 3 µM, respectively.

As for `CS(=N)(=O)CC[C@H](N)C(=O)O` (stereo partly drawn) [L-MSO, L-methionine sulfoximine], the “Specific activity (nmol s^-1 mg^-1 PpArsN1) / Substrate” value in data set [5] was 2.1 ± 0.1 nmol/s/mg.

As for `N[C@@H](CCC(=O)O)C(=O)O` [L-glutamate], at glutamine synthetase [6], the Km came to 2700 ± 600 µM.

“PpArsN1, arsinothricin N-acetyltransferase ArsN1 of Pseudomonas putida KT2440 (enzyme)”: the stoichiometry N in data set [7] was 2.
